#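 Tested at 5 concentrations; 48 h exposure; 96-well plates; endpoints linearly interpolated, else capped at highest concentration. At the GI50, growth is halved.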 Activity calls are given as the source filed them. Cut-off read from the data, not from the text of the source: active = GI50 up to about 1.1 µM and inactive = higher.
# What was measured:
# Assay in all cases: DTP human tumour cell line panel, 48 h
# RXF 393 = tested on: RXF 393
# LXFL 529 = tested on: LXFL 529
# OVCAR-8 = tested on: OVCAR-8
# M14 = tested on: M14
# KM12 = tested on: KM12
# SW-620 = tested on: SW-620
# CCRF-CEM = tested on: CCRF-CEM
# M19-MEL = tested on: M19-MEL
# LOX IMVI = tested on: LOX IMVI
# NCI-H460 = tested on: NCI-H460
# SNB-75 = tested on: SNB-75
# DLD-1 = tested on: DLD-1
# 786-0 = tested on: 786-0
# K562 = tested on: K562
# NCI-H226 = tested on: NCI-H226
# SK-OV-3 = tested on: SK-OV-3
# OVCAR-5 = tested on: OVCAR-5
# COLO 205 = tested on: COLO 205
# ACHN = tested on: ACHN
# SF-268 = tested on: SF-268
# OVCAR-3 = tested on: OVCAR-3
# SF-539 = tested on: SF-539
# HOP-18 = tested on: HOP-18
# EKVX = tested on: EKVX
# SNB-19 = tested on: SNB-19
# SNB-78 = tested on: SNB-78
# OVCAR-4 = tested on: OVCAR-4
# NCI-H522 = tested on: NCI-H522
# SF-295 = tested on: SF-295
# HL-60 = tested on: HL-60
# IGROV-1 = tested on: IGROV-1
# TK-10 = tested on: TK-10
# SK-MEL-28 = tested on: SK-MEL-28
# U-251 = tested on: U-251
# NCI-H23 = tested on: NCI-H23
# UACC-62 = tested on: UACC-62
# HT-29 = tested on: HT-29
# DMS-273 = tested on: DMS-273
# UO-31 = tested on: UO-31
# RPMI-8226 = tested on: RPMI-8226
# HCT-116 = tested on: HCT-116
# HCT-15 = tested on: HCT-15
# HOP-92 = tested on: HOP-92
# HOP-62 = tested on: HOP-62
# CAKI-1 = tested on: CAKI-1
# Malme-3M = tested on: Malme-3M
# MOLT-4 = tested on: MOLT-4
# SN12C = tested on: SN12C
# A549 = tested on: A549
# DMS-114 = tested on: DMS-114
# SR = tested on: SR
# KM-20L2 = tested on: KM-20L2
# HCC 2998 = tested on: HCC 2998
# SK-MEL-5 = tested on: SK-MEL-5
# UACC-257 = tested on: UACC-257
# A498 = tested on: A498
compound,measurement,setting,value
Cc1cc(C)c2c(c1C)CN1CN2Cc2c(C)c(C)cc(C)c21,GI50,RXF 393,4.38 µM (inactive)
same,GI50,LXFL 529,8.15 µM (inactive)
same,GI50,OVCAR-8,> 100 µM (inactive)
same,GI50,M14,> 100 µM (inactive)
same,GI50,KM12,> 100 µM (inactive)
same,GI50,SW-620,> 100 µM (inactive)
same,GI50,CCRF-CEM,> 100 µM (inactive)
same,GI50,M19-MEL,30.5 µM (inactive)
same,GI50,LOX IMVI,> 100 µM (inactive)
same,GI50,NCI-H460,48.4 µM (inactive)
same,GI50,SNB-75,21 µM (inactive)
same,GI50,DLD-1,20.8 µM (inactive)
same,GI50,786-0,> 100 µM (inactive)
same,GI50,K562,8.75 µM (inactive)
same,GI50,NCI-H226,> 100 µM (inactive)
same,GI50,SK-OV-3,> 100 µM (inactive)
same,GI50,OVCAR-5,> 100 µM (inactive)
same,GI50,COLO 205,45.6 µM (inactive)
same,GI50,ACHN,> 100 µM (inactive)
same,GI50,SF-268,> 100 µM (inactive)
same,GI50,OVCAR-3,18.9 µM (inactive)
same,GI50,SF-539,> 100 µM (inactive)
same,GI50,HOP-18,83.6 µM (inactive)
same,GI50,EKVX,> 100 µM (inactive)
same,GI50,SNB-19,< 0.01 µM (active)
same,GI50,SNB-78,42.6 µM (inactive)
same,GI50,OVCAR-4,7.98 µM (inactive)
same,GI50,NCI-H522,> 100 µM (inactive)
same,GI50,SF-295,> 100 µM (inactive)
same,GI50,HL-60,11.4 µM (inactive)
same,GI50,IGROV-1,> 100 µM (inactive)
same,GI50,TK-10,> 100 µM (inactive)
same,GI50,SK-MEL-28,> 100 µM (inactive)
same,GI50,U-251,5.18 µM (inactive)
same,GI50,NCI-H23,6.84 µM (inactive)
same,GI50,UACC-62,> 100 µM (inactive)
same,GI50,HT-29,44.4 µM (inactive)
same,GI50,DMS-273,6.56 µM (inactive)
same,GI50,UO-31,> 100 µM (inactive)
same,GI50,RPMI-8226,> 100 µM (inactive)
same,GI50,HCT-116,> 100 µM (inactive)
same,GI50,HCT-15,20.4 µM
same,GI50,HOP-92,67.1 µM (inactive)
same,GI50,HOP-62,> 100 µM (inactive)
same,GI50,CAKI-1,> 100 µM (inactive)
same,GI50,Malme-3M,> 100 µM (inactive)
same,GI50,MOLT-4,> 100 µM (inactive)
same,GI50,SN12C,> 100 µM (inactive)
same,GI50,A549,80.9 µM (inactive)
same,GI50,DMS-114,2.92 µM (inactive)
same,GI50,SR,> 100 µM (inactive)
CC(=O)OC[C@@H]1[C@H]2CC(=O)O[C@H]2C[C@H]1OC(C)=O,GI50,RXF 393,> 100 µM (inactive)
same,GI50,LXFL 529,> 100 µM (inactive)
same,GI50,OVCAR-8,> 100 µM (inactive)
same,GI50,M14,> 100 µM (inactive)
same,GI50,KM12,> 100 µM (inactive)
same,GI50,SW-620,> 100 µM (inactive)
same,GI50,CCRF-CEM,> 100 µM (inactive)
same,GI50,M19-MEL,> 100 µM (inactive)
same,GI50,LOX IMVI,> 100 µM (inactive)
same,GI50,NCI-H460,> 100 µM (inactive)
same,GI50,SNB-75,> 100 µM (inactive)
same,GI50,DLD-1,> 100 µM (inactive)
same,GI50,786-0,> 100 µM (inactive)
same,GI50,KM-20L2,> 100 µM (inactive)
same,GI50,HCC 2998,> 100 µM (inactive)
same,GI50,SK-OV-3,> 100 µM (inactive)
same,GI50,OVCAR-5,> 100 µM (inactive)
same,GI50,COLO 205,24.7 µM (inactive)
same,GI50,ACHN,> 100 µM (inactive)
same,GI50,SF-268,> 100 µM (inactive)
same,GI50,OVCAR-3,> 100 µM (inactive)
same,GI50,SF-539,> 100 µM (inactive)
same,GI50,HOP-18,> 100 µM (inactive)
same,GI50,EKVX,> 100 µM (inactive)
same,GI50,SNB-19,> 100 µM (inactive)
same,GI50,SNB-78,> 100 µM (inactive)
same,GI50,OVCAR-4,> 100 µM (inactive)
same,GI50,NCI-H522,> 100 µM (inactive)
same,GI50,SF-295,> 100 µM (inactive)
same,GI50,HL-60,> 100 µM (inactive)
same,GI50,IGROV-1,> 100 µM (inactive)
same,GI50,TK-10,> 100 µM (inactive)
same,GI50,SK-MEL-28,> 100 µM (inactive)
same,GI50,U-251,> 100 µM (inactive)
same,GI50,UACC-62,> 100 µM (inactive)
same,GI50,HT-29,> 100 µM (inactive)
same,GI50,DMS-273,> 100 µM (inactive)
same,GI50,UO-31,> 100 µM (inactive)
same,GI50,SK-MEL-5,> 100 µM (inactive)
same,GI50,RPMI-8226,> 100 µM (inactive)
same,GI50,HCT-116,94 µM (inactive)
same,GI50,HCT-15,> 100 µM
same,GI50,HOP-92,> 100 µM (inactive)
same,GI50,HOP-62,> 100 µM (inactive)
same,GI50,CAKI-1,> 100 µM (inactive)
same,GI50,Malme-3M,> 100 µM (inactive)
same,GI50,MOLT-4,> 100 µM (inactive)
same,GI50,SN12C,> 100 µM (inactive)
same,GI50,A549,> 100 µM (inactive)
same,GI50,DMS-114,> 100 µM (inactive)
same,GI50,SR,> 100 µM (inactive)
same,GI50,UACC-257,> 100 µM (inactive)
same,GI50,A498,> 100 µM (inactive)

# — ChEMBL document CHEMBL1201862, “PubChem BioAssay data set” (2004)
